Source: patent publication US20250319069A1, “METHODS FOR TREATING DEPRESSIVE STATES” (BioXcel Therapeutics, Inc., priority 2021, published 2025)

Assays:
rats = test: Elevated plus-maze test in the rat (Example 1); details: for significance of effect on number of entries, % of entries and time spent in the open arms as compared with vehicle control: Dexmedetomidine 10 μg/kg i.p. (increase), Fluoxetine 32 mg/kg i.p. (decrease), vs Group 1; for anxiolytic-like / anxiogenic-like activity in the Elevated Plus Maze Test (conclusion in words): rat, Dexmedetomidine 10 μg/kg i.p., alone or co-administered
Experimental: The test, reference, comparison or vehicle formulations were administered as a single intraperitoneal dose (i.p.).
Under standard artificial lighting (˜200 Lux), there was a contrast between the closed (obscure and safe) arms and the open (brightly illuminated and anxiogenic) arms of the maze.
The day preceding the experiment, rats were randomized based on their body weight.
The maze consisted of 4 arms of equal length and width (50×10 cm) arranged in the form of a plus sign (+). Two opposite arms were enclosed by 40 cm high walls (closed arms). The 2 other arms had no walls (open arms). The maze was raised approximately 65 cm above the floor. A rat was placed in the centre of the plus-maze and left to explore for 5 minutes.
The test was video-recorded and the number of entries into the open and closed arms and the time spent on the open arms were measured automatically using a video tracking system (EthoVision, Noldus). The % of open arm entries (open arm entries/total arm entries×100) were calculated. The total distance travelled was also reported.
10 rats were studied per group. The test was performed blind over 2 days with half of animals in each group each day.
Fluoxetine (32 mg/kg i.p.) administered 30 minutes before the test was used as comparison substance.
Clobazam (16 mg/kg i.p.), administered 30 minutes before the test was used as reference substance.
All animals received 2 consecutive administrations at 30 minutes before the test.
Data (for each parameter measured) with the test substance was analysed by comparing treated groups with vehicle controls using one-way ANOVA followed by post-hoc Dunnett's tests.
Data with the comparison reference substance (clobazam) was separately analysed by comparing each treated group with vehicle controls using unpaired Student's T-tests.

[1] = tested on: Yohimbine challenged rats; test: Elevated plus maze test in Yohimbine challenged rats (Example 2); type: in vivo, male Wistar rats; details: for Number of entries in the open arms (Mean ± SEM) / Time spent in the open arms (Mean ± SEM): rats given YOH 2.5 mg/kg i.p., N=12; for In the open arms: Percentage change compared to Yohimbine administered group, Number of entries / In the open arms: Percentage change compared to Yohimbine administered group, Time spent: YOH 2.5 mg/kg
Experimental: Treatment with Test Compounds: • As outlined in the table • Vehicle is Saline
After compound administration, the rat was placed on the platform opposite a closed arm. The number of entries and the time spent in each arm were recorded during a 5 min period (deliverables). The animal was considered as entered in arm when it placed its four paws into the arm.
The number of rats processed per day was about 20 in this model. Therefore, the experiment was split in several series.
Analysis of variance (ANOVA) was performed on the result data. Fisher's PLSD was used for
pairwise comparisons and p value <0.05 was considered significant.

[2] = Yohimbine 2.5 mg/kg i.p. + vehicle (Group 2) vs Group 1, p<0.0001
[3] = DEX 10 μg/kg i.p., DIAZEPAM 1 mg/kg i.p., or YOH + vehicle, 5 min test
[4] = Dexmedetomidine 10 μg/kg i.p., Fluvoxamine 3 mg/kg i.p., alone or combined (Group 7), diazepam 1 mg/kg i.p.
[5] = FLUVO 3 mg/kg, alone or with DEX 10 μg/kg
[6] = FLUVO 10 mg/kg, alone or with DEX 10 μg/kg
[7] = FLUVO 3 mg/kg i.p., alone or with DEX 10 μg/kg i.p.
[8] = FLUVO 10 mg/kg i.p., alone or with DEX 10 μg/kg i.p.
[9] = DEX 10 μg/kg or diazepam 1 mg/kg i.p.
[10] = DEX 10 μg/kg or diazepam 1 mg/kg i.p., listed as DEX

CNCCC(Oc1ccc(C(F)(F)F)cc1)c1ccccc1 (stereo not drawn) [Fluoxetine, N-methyl-3-(p-trifluoromethylphenoxy)-3-phenylpropylamine]
significance of effect on number of entries, % of entries and time spent in the open arms as compared with vehicle control (rats): not significant | change in total distance travelled in the four arms as compared with vehicle control (rats; Fluoxetine 32 mg/kg i.p. alone or with Dexmedetomidine 10 μg/kg, vs vehicle control (Group 1)): −65% | change in total number of entries in the four arms as compared with vehicle control (rats; Fluoxetine 32 mg/kg i.p., vs vehicle control (Group 1)): −57% | anxiolytic-like / anxiogenic-like activity in the Elevated Plus Maze Test (conclusion in words) (rats; Fluoxetine 32 mg/kg i.p.): tended to show anxiogenic like effect

COC(=O)[C@@H]1[C@H]2C[C@H]3c4[nH]c5ccccc5c4CCN3C[C@@H]2CC[C@@H]1O [YOH, Yohimbine]
change in number of entries to the open arms as compared to vehicle (saline) treated group [1, 2]: −63% | change in time spent in the open arms as compared to vehicle (saline) treated group [1, 2]: −81% | Number of entries in the open arms (Mean ± SEM) [1, 3]: 1.75 ± 0.25 | Time spent in the open arms (Mean ± SEM) [1, 3]: 10.42 ± 1.28

COCCCCC(=NOCCN)c1ccc(C(F)(F)F)cc1 [Fluvoxamine, 5-methoxy-1-[4-(trifluoromethyl)phenyl]-1-pentanone O-(2-aminoethyl) oxime]
anxiolytic-like effect in Yohimbine administered rats (conclusion in words) [1, 4]: not statistically significant | significance of improvement in number of entries in the open arms compared with Yohimbine-administered vehicle group ([1]; Fluvoxamine 3 mg/kg i.p. (Group 5)): no significant improvement | significance of improvement in number of entries in the open arms compared with Yohimbine-administered vehicle group ([1]; Fluvoxamine 10 mg/kg i.p. (Group 6)): no significant improvement | anxiolytic-like effect in Yohimbine administered rats (conclusion in words) ([1]; Fluvoxamine 10 mg/kg i.p., in terms of the time spent in the open arms): significant anxiolytic-like effect | In the open arms: Percentage change compared to Yohimbine administered group, Number of entries [1, 5]: +52% | In the open arms: Percentage change compared to Yohimbine administered group, Time spent [1, 5]: +105% | In the open arms: Percentage change compared to Yohimbine administered group, Time spent ([1]; FLUVO 3 mg/kg, alone or with DEX 10 μg/kg, listed as FLUVO): +105% | In the open arms: Percentage change compared to Yohimbine administered group, Number of entries [1, 6]: +76% | In the open arms: Percentage change compared to Yohimbine administered group, Time spent [1, 6]: +232% | In the open arms: Percentage change compared to Yohimbine administered group, Time spent ([1]; FLUVO 10 mg/kg, alone or with DEX 10 μg/kg, listed as FLUVO): +232% | Number of entries in the open arms (Mean ± SEM) [1, 7]: 2.67 ± 0.22 | Time spent in the open arms (Mean ± SEM) [1, 7]: 21.39 ± 2.67 | Number of entries in the open arms (Mean ± SEM) [1, 8]: 3.08 ± 0.42 | Time spent in the open arms (Mean ± SEM) [1, 8]: 34.60 ± 5.24

Cc1cccc([C@H](C)c2cnc[nH]2)c1C [Dexmedetomidine, (+) 4-(S)-[1-(2,3-dimethylphenyl)ethyl]-1H-imidazole]
anxiolytic-like effect in Yohimbine administered rats (conclusion in words) [1, 4]: not statistically significant | In the open arms: Percentage change compared to Yohimbine administered group, Number of entries [1, 9]: +48% | In the open arms: Percentage change compared to Yohimbine administered group, Time spent [1, 9]: +146% | In the open arms: Percentage change compared to Yohimbine administered group, Number of entries [1, 10]: +48% | In the open arms: Percentage change compared to Yohimbine administered group, Time spent [1, 10]: +146% | Number of entries in the open arms (Mean ± SEM) [1, 3]: 2.58 ± 0.26 | Time spent in the open arms (Mean ± SEM) [1, 3]: 25.66 ± 3.84 | significance of effect on number of entries, % of entries and time spent in the open arms as compared with vehicle control (rats): not significant | anxiolytic-like / anxiogenic-like activity in the Elevated Plus Maze Test (conclusion in words) (rats; Fluoxetine 32 mg/kg i.p.): absence of anxiolytic-like activity

CN1C(=O)CN=C(c2ccccc2)c2cc(Cl)ccc21 [DIAZEPAM, Diazepam]
anxiolytic-like effect in Yohimbine administered rats (conclusion in words) [1, 4]: reversed Yohimbine-induced anxiety | In the open arms: Percentage change compared to Yohimbine administered group, Number of entries [1, 9]: +262% | In the open arms: Percentage change compared to Yohimbine administered group, Time spent [1, 9]: +620% | Number of entries in the open arms (Mean ± SEM) [1, 3]: 6.33 ± 0.28 | Time spent in the open arms (Mean ± SEM) [1, 3]: 74.98 ± 4.31
